According to US20060235222A1, “Indole-derivative modulators of steroid hormone nuclear receptors” (ELI LILLY AND COMPANY, priority 2003, published 2006):

Experiments:
human MR = target: T1, human MR (Homo sapiens, UniProt P08235); experiment: Mineralocorticoid Receptor Binding Assay (Method 1), [3H]-aldosterone competition; settings: 0.5 nM [3H]-aldosterone, human MR expressed in Sf9 cells
T1 construct: The full length human MR gene is cloned from a human kidney or human brain cDNA library; inferred from own knowledge of the pAcHLT vector (N); made in house; host or cells: Sf9 insect cells (baculovirus)
T1 sequence (P08235 1-984): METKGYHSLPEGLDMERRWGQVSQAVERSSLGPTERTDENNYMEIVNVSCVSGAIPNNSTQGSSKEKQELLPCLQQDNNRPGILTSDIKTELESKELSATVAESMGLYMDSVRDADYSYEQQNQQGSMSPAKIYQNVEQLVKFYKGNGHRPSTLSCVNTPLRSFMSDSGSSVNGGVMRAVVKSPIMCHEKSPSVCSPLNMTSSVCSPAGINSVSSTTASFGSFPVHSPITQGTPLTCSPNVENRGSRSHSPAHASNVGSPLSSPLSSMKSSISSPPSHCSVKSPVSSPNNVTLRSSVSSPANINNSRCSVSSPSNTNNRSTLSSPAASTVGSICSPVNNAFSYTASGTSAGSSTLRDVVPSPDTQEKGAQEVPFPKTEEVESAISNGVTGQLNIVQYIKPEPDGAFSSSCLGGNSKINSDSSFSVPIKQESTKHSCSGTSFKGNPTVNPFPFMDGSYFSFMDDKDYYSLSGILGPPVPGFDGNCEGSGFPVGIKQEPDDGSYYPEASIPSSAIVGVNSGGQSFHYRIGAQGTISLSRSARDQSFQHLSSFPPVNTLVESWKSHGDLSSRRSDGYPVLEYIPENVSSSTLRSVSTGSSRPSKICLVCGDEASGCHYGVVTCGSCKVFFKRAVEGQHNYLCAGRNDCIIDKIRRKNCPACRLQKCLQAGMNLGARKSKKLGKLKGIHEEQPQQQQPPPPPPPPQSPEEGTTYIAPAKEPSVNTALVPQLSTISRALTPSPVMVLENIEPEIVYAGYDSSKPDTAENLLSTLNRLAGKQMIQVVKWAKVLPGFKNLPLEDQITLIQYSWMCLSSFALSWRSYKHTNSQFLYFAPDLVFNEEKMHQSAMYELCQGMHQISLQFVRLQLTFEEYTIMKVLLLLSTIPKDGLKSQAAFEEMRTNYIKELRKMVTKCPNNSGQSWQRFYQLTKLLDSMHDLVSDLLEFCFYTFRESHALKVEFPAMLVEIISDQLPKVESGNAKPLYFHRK
How it was run: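 Full-length human MR expressed in Sf9 cells via baculovirus; lysate supernatant (about 20-25 μg protein) incubated with 0.5 nM [3H]-aldosterone and test compound for about 16 h at 4° C. Buffer was Tris/molybdate/phosphate/pyrophosphate with 10% glycerol, pH 7.5; filter-bound complex counted by scintillation.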

[1] = target: T2, human GR (glucocorticoid receptor) (Homo sapiens, UniProt P04150); experiment: Alternative Binding Assay Protocol (Method 2), 293-GR lysate, 3H-dexamethasone competition; settings: 0.3 nM 3H-dexamethasone
T2 construct: expressed in transfected cells; host or cells: 293 cells
T2 sequence (P04150 1-777): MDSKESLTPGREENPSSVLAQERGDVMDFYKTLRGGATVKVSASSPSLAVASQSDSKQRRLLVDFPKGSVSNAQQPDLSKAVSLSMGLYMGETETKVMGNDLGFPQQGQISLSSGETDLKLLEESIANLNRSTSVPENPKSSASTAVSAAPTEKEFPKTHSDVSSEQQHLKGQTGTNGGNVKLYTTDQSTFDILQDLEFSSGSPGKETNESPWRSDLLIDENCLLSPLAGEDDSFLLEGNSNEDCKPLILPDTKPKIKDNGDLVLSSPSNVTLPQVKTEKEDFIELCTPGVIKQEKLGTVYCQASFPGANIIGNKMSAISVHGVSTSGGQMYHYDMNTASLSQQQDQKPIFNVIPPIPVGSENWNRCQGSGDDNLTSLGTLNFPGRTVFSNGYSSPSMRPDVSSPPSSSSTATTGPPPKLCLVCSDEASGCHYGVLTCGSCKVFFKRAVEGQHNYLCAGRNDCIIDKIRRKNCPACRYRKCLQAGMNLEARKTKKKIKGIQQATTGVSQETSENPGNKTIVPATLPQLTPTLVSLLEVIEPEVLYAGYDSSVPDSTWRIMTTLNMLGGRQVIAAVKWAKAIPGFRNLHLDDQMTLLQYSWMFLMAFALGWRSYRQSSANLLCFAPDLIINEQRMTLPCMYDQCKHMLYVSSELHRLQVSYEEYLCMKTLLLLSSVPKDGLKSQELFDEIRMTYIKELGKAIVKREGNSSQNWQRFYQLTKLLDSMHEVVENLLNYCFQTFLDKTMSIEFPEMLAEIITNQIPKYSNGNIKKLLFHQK
Description: Alternative Binding Assay Protocol for MR, GR, AR, and PR (Method 2):
Cell lysates from 293 cells overexpressing human GR (glucocorticoid receptor), AR (androgen receptor), MR (mineralocorticoid receptor) or PR (progesterone-receptor) are used for competition binding assays to determine Ki values for test compounds. […] Competing compounds are added at various concentraions in half-log increments. Non-specific binding is determined in the presence of 500 nM dexamethasone for GR binding, 500 nM aldosterone for MR binding, or 500 nM methyltrienolone for AR and PR binding. The binding reaction (140 μl) is incubated for overnight at 4° C., then 70 μl of cold charcoal-dextran buffer (containing per 50 ml of assay buffer, 0.75 g of charcoal and 0.25 g of dextran) is added to each reaction. Plates are mixed 8 minutes on an orbital shaker at 4° C. Plates are then centrifuged at 3,000 rpm at 4° C. for 10 minutes. An aliquot of 120 μl of the mix is transferred to another 96-well plate and 175 μl of Wallac Optiphase “Hisafe 3” scintillation fluid is added to each well. Plates are sealed and shaken vigorously on an orbital shaker. After an incubation of 2 hrs, plates are read in a Wallac Microbeta counter. […] The Kd for ^3H-dexamethasone for GR binding, ^3H-methyltrienolone for AR binding, ^3H-aldosterone for MR binding, or ^3H-methyltrienolone for PR binding, is determined by saturation binding. The IC50 values for compounds are converted to Ki using Cheng-Prusoff equation and the Kd determined by saturation binding assay.

[2] = tested on: patients suffering from advanced CHF; settings: in combination with standard CHF therapy; cited from earlier work

Compound	Ki (human MR) [nM]	Ki [1] [nM]	melting point	reduced cardiac related mortality [2] [%]	reduced frequency of hospitalization [2] [%]
CCC(CC)(c1ccc2nc(NC(C)=O)sc2c1)c1c[nH]c2c(NS(C)(=O)=O)cccc12 [Example 147, N-{6-[1-Ethyl-1-(7-methanesulfonylamino-1H-indol-3-yl)-propyl]-benzothiazol-2-yl}-acetamide]	< 500	< 500	286 to 288 °C	–	–
CCC(CC)(c1ccc2nc(Cl)sc2c1)c1c[nH]c2c(NS(C)(=O)=O)cccc12 [Example 148, N-{3-[1-(2-Chloro-benzothiazol-6-yl)-1-ethyl-propyl]-1H-indol-7-yl}-methanesulfonamide]	< 500	< 500	180 to 190 °C	–	–
CCC(CC)(c1ccc2[nH]nnc2c1)c1c[nH]c2c(NS(C)(=O)=O)cccc12 [Example 153, N-{3-[1-(3H-Benzotriazol-5-yl)-1-ethyl-propyl]-1H-indol-7-yl}-methanesulfonamide]	< 500	< 500	165 to 172 °C	–	–
CCC(CC)(c1ccc2sc(Cl)nc2c1)c1c[nH]c2c(NS(C)(=O)=O)cccc12 [Example 161, N-{3-[1-(2-Chloro-benzothiazol-5-yl)-1-ethyl-propyl]-1H-indol-7-yl}-methanesulfonamide]	< 500	< 500	217 to 220 °C	–	–
CC(=O)S[C@@H]1CC2=CC(=O)CC[C@]2(C)[C@H]2CC[C@@]3(C)[C@@H](CC[C@@]34CCC(=O)O4)[C@H]12 [spironolactone]	–	–	–	30	35

More lines, main results first:

Ki (human MR) [nM]	Ki [1] [nM]	melting point	Compound	reduced cardiac related mortality [2] [%]	reduced frequency of hospitalization [2] [%]
< 500	< 500	260 to 263 °C (dec.)	CCC(CC)(c1ccc2sc(N)nc2c1)c1c[nH]c2c(NS(C)(=O)=O)cccc12 [Example 141, N-{3-[1-(2-Amino-benzothiazol-5-yl)-1-ethyl-propyl]-1H-indol-7-yl}-methanesulfonamide]	–	–
< 500	< 500	132 to 135 °C	CCC(CC)(c1ccc2ocnc2c1)c1c[nH]c2c(NS(C)(=O)=O)cccc12 [Example 146, N-[3-(1-Benzooxazol-5-yl-1-ethyl-propyl)-1H-indol-7-yl]-methanesulfonamide]	–	–
